Counter-ions that a name gives are not always drawn.
Columns and labels:
[1] = test system: rats; experiment: Passive avoidance in rats, an in vivo test for learning and memory; set-up: species or system rat; conditions: MK-801 0.1 mg/kg pretreatment, retention test 24 hours after electric shock, compared to the vehicle, p<0.001
Description: The test was performed as previously described (Zhang, H.-T., Crissman, A. M., Dorairaj, N. R., Chandler, L. J., and O'Donnell, J. M., Neuropsychopharmacology, 2000, 23, 198-204.). The apparatus (Model E10-16SC, Coulbourn Instruments, Allentown, Pa.) consisted of a two-compartment chamber with an illuminated compartment connected to a darkened compartment by a guillotine door. The floor of the darkened compartment consisted of stainless steel rods through which an electric foot-shock could be delivered from a constant current source. All experimental groups were first habituated to the apparatus the day before the start of the experiment. During the training, the rat (Male Spraque-Dawley (Harlan) weighing 250 to 350 g) was placed in the illuminated compartment facing away from the closed guillotine door for 1 minute before the door was raised. The latency for entering the darkened compartment was recorded. After the rat entered the darkened compartment, the door was closed and a 0.5 mA electric shock was administered for 3 seconds. […] The latency for entering the darkened compartment was recorded for up to 180 seconds, at which time the trial was terminated.
(§1) All data were analyzed by analyses of variance (ANOVA); individual comparisons were made using Kewman-Keuls tests. […]

[2] = test system: rats; experiment: Radial arm maze task in rats, an in vivo test for learning and memory; set-up: species or system rat; conditions: MK-801 0.1 mg/kg i.p., compared to control, p<0.01
Description: The test was performed as previously described (Zhang, H.-T., Crissman, A. M., Dorairaj, N. R., Chandler, L. J., and O'Donnell, J. M., Neuropsychopharmacology, 2000, 23, 198-204.). Five days after initial housing, rats (male Spraque-Dawley (Harlan) weighing 250 to 350 g) were placed in the eight-arm radial maze (each arm was 60×10×12 cm high; the maze was elevated 70 cm above the floor) for acclimation for two days. Rats were then placed individually in the center of the maze for 5 minutes with food pellets placed close to the food wells, and then, the next day, in the wells at the end of the arms; 2 sessions a day were conducted. Next, four randomly selected arms were then baited with one pellet of food each. The rat was restricted to the center platform (26 cm in diameter) for 15 seconds and then allowed to move freely throughout the maze until it collected all pellets of food or 10 minutes passed, whichever came first. Four parameters were recorded: 1) working memory errors, i.e., entries into baited arms that had already been visited during the same trial; 2) reference memory errors, i.e., entries into unbaited arms; 3) total arm entries; and 4) the test duration (seconds), i.e., the time spent in the collection of all the pellets in the maze. […]
as §1

[3] = Solubility of the mesylate salt in H2O; type: physicochemical
Description: To obtain the methansulphonate salt (mesylate salt), 4 ml of 0.1N CH3SO3H in EtOAc was added to a solution of 145 mg (0.4 mmol) 6-cyclopropylamino-9-(2-fluorobenzyl)-2-trifluoromethylpurine in EtOAc. Then, 1 ml of hexane was added to a warm solution and the resultant mixture was allowed to crystallize (within a refrigerator). The solid was collected to give 148 mg of the mesylate salt. […] M.p. 167.5-169.0 C; m.p. 114-118 C for free base.

| Compound | latency for entering the darkened compartment [1] | reference memory errors (frequency) [2] | working memory errors (frequency) [2] | solubility in H2O [3] |
| --- | --- | --- | --- | --- |
| C[C@]12N[C@H](Cc3ccccc31)c1ccccc12 [MK-801] | markedly reduced this latency | increased the frequencies | increased the frequencies | – |
| Fc1ccccc1Cn1cnc2c(NC3CC3)nc(C(F)(F)F)nc21 [Example 4 mesylate salt, 6-cyclopropylamino-9-(2-fluorobenzyl)-2-trifluoromethylpurine] | – | – | – | relatively insoluble |

From patent US7342021B2, “Phosphodiesterase 4 inhibitors” (Memory Pharmaceuticals Corp., priority 2001, dated 2008)
